Patent US11020405B2, “Method for prevention or treatment of diabetic complications” (KANGWON NATIONAL UNIVERSITY UNIVERSITY-INDUSTRY COOPERATION …, priority 2017, dated 2021)

Columns and labels:
[1] = Body weight and blood glucose monitoring in diabetic mice; assay type: in vivo, C57BL/6 mice
Protocol: (§1) FIGS. 19A and 19B show the preventive effects of midazolam against hyperglycemia-induced endothelial apoptosis in the aortic endothelium of diabetic mice. Six-week-old male C57BL/6 mice were administered with streptozotocin (150 mg/kg body weight) to give diabetic mouse models. One week after streptozotocin injection, diabetic mice were administered midazolam (10 mg/kg) by intraperitoneal injection daily for 14 days. The body weight of mice were measure in normal (20.7±0.1 g), diabetic (17.1±0.1 g), and midazolam supplemented diabetic mice (17.0±0.3 g). Blood glucose levels were also monitored in normal (124.0±12.0 mg/dL), diabetic (509.0±1.0 mg/dL), and midazolam supplemented diabetic mice (515.7±3.4 mg/dL). Aorta of mice were dissected and cut longitudinally to expose the endothelium. And then aortic segments were fixed for 15 min with 1% (w/v) paraformaldehyde in PBS, followed by treatment for 30 min with 70% (v/v) ethanol on ice. Apoptotic cells were stained by terminal deoxynucleotidyl transferase dUTP nick end labeling (TUNEL) with nuclear counterstaining with DAPI and visualized by confocal microscopy in the aortic endothelium. Representative images of endothelial apoptosis in aorta are shown in additional FIG. 19A. Scale bar, 100 μm. The results of endothelial apoptosis quantitatively analyzed by measurement of TUNEL staining in the aorta are shown in additional FIG. 19B (n=4 for normal and diabetic, n=6 for diabetic+Midazolam).
FIGS. 20A and 20B show the preventive effects of midazolam against hyperglycemia-induced renal vascular leakage in diabetic mice. Six-week-old male C57BL/6 mice were administered with streptozotocin (150 mg/kg body weight) to give diabetic mouse models. Two weeks after streptozotocin injection, diabetic mice were administered 10 mg/kg midazolam by intraperitoneal injection daily for 2 days, and vascular leakage was investigated. The body weight of mice were measure in normal (19.9±0.3 g), diabetic (17.7±0.3 g), and midazolam supplemented diabetic mice (17.7±0.3 g). Blood glucose levels were also monitored in normal (123.5±6.5 mg/dL), diabetic (505.0±89.0 mg/dL), and midazolam supplemented diabetic mice (500.3±63.3 mg/dL). The mice were anesthetized with 3% isoflurane, and 1.25 mg of FITC-dextran was injected into the right ventricle of each mouse and allowed to circulate for 5 min. […] The results of vascular leakage quantitatively analyzed by measuring the fluorescence intensity of FITC-dextran in the kidneys are shown in additional FIG. 20B. […]
FIGS. 21A and 21B show the preventive effects of midazolam against hyperglycemia-induced pulmonary vascular leakage in diabetic mice. […] Blood glucose levels were also monitored in normal (123.5±6.5 mg/dL), diabetic (505.0±89.0 mg/dL), and midazolam supplemented diabetic mice (500.3±63.3 mg/dL). […]

VE-cadherin = assay: Analysis of adherens junction (VE-cadherin staining); assay type: cell-based, human; conditions: HRECs, 10 ng/mL VEGF 90 min with 20 μM midazolam, 5 μM BAPTA-AM, 1 mM NAC, 0.5 μM Trolox, 50 μM cystamine or 20 μM MDC (FIGS. 5, 6)
Protocol: Purchased from Applied Cell Biology Research Institute (Cell Systems, Kirkland, Wash.), human retinal endothelial cells (HRECs) were cultured in an M19 medium, containing 20% FBS, 3 ng/mL bFGF, 5 U/mL heparin, 100 U/mL penicillin and […], in a 2% gelatin-coated plate.
Before the following Test Examples 2 to 7, the HRECs were cultured for 6 hr in a medium containing 1% FBS and an antibiotic agent, thus preparing HRECs of Test Example 1.
The HRECs of Test Example 1 were subjected to the respective treatments below and cultured for 30 min. Here, treatment with 10 ng/mL VEGF was performed for 90 min. Thereafter, the HRECs were treated with 1 mM 5-(biotinamido)pentylamine, incubated for 1 hr, fixed with 3.7% formaldehyde, treated with 0.2% triton X-100, treated with a blocking solution containing 138 mM NaCl, 0.1% Tween 20 and 2% BSA dissolved in a 20 mM Tris (pH 7.6) buffer, incubated for 30 min, incubated with a monoclonal VE-cadherin antibody (1:200; Santa Cruz Biotechnology) for 12 hr or more (overnight), incubated with a FITC-conjugated goat anti-mouse antibody (1:200; Sigma-Aldrich), and then measured using confocal microscopy. Some (the following i), iii), iv), vi), ix)) of the results are shown in FIG. 5 and the VE-cadherin concentrations in the portions represented by the dotted lines in FIG. 5 are shown in FIG. 6. With reference to FIG. 6, 10 randomly selected cells were measured to determine the fluorescence intensity of single cells and thus quantify VE-cadherin.
VE-cadherin, which is a protein that mediates adherens junction, was analyzed to evaluate adherens junction.

[2] = tested on: aortic endothelium of diabetic mice; assay: Hyperglycemia-induced endothelial apoptosis in aortic endothelium of diabetic mice (TUNEL); assay type: in vivo, C57BL/6 mice; conditions: midazolam 10 mg/kg intraperitoneal daily for 14 days (FIG. 19)
Protocol: as §1, with “Representative images of endothelial apoptosis in aorta are shown in additional FIG. 19A. Scale bar, 100 μm.” left out

VEGF = assay: VEGF-induced vascular leakage in mouse ear (evans blue dye); assay type: in vivo, C57BL/6 mice; conditions: 24 hr before evans blue dye, 30 ng VEGF intradermally (FIG. 23)
Protocol: Six-week-old male C57BL/6 mice were administered 5 or 10 mg/kg midazolam by intraperitoneal injection. After 24 hr, mice were intravenously injected with 45 mg/kg evans blue dye. After 30 min circulation, 10 μl VEGF solution (30 ng) was injected intradermally into the dorsal part of ears. Representative images of vascular leakage in ears are shown in additional FIG. 23 (n=2/group).

Question: Which body weight ([1]; Test Example 15: midazolam supplemented diabetic mice, 10 mg/kg intraperitoneal daily for 14 days) does the source give for `Cc1ncc2n1-c1ccc(Cl)cc1C(c1ccccc1F)=NC2` [midazolam] here?
Answer: 17.0 ± 0.3 g

Question: What about the body weight ([1]; Test Example 16: midazolam supplemented diabetic mice, 10 mg/kg intraperitoneal daily for 2 days) of the same compound?
Answer: 17.7 ± 0.3 g

Question: And the body weight ([1]; Test Example 17: midazolam supplemented diabetic mice, 10 mg/kg intraperitoneal daily for 2 days)?
Answer: 17.6 ± 0.3 g

Question: What about the weight of mice ([1]; Test Example 18: midazolam supplemented diabetic mice, 10 mg/kg intraperitoneal daily for 14 days, B16F10 cells) of the same compound?
Answer: 16.2 ± 0.5 g

Question: And the “VE-cadherin concentration / adherens junction disruption due to VEGF” value (VE-cadherin)?
Answer: exhibited the effect of preventing the adherens junction disruption due to VEGF

Question: What about the “hyperglycemia-induced endothelial apoptosis in aorta (TUNEL staining)” value [2] of the same compound?
Answer: inhibited the hyperglycemia-induced apoptosis of diabetic aortas

Question: What about the “VEGF-induced vascular leakage in mouse ear” value (VEGF; 5 mg/kg midazolam intraperitoneal) of the same compound?
Answer: not at 5 mg/kg

Question: And the “VEGF-induced vascular leakage in mouse ear” value (VEGF; 10 mg/kg midazolam intraperitoneal)?
Answer: suppressed
